Holding throughout (assay type): in vivo
One experiment concerns Rhipicephalus microplus. The experiment can be described thus: Rhipicephalus (Boophilus) microplus dip test (BOOPMI Dip). Particulars: 168 h, application rate 100 ppm, engorged adult female ticks, after 7 days, read-out: activity (efficacy: 100% means all eggs are infertile). As for the experimental part: Rhipicephalus (Boophilus) Microplus—Dip Test (BOOPMI Dip)
Test Animal: cattle ticks (Rhipicephalus microplus) strain parkhurst, SP-resistant Solvent: dimethyl sulfoxide
To produce a suitable preparation of active compound, 10 mg of active compound are dissolved in 0.5 mL solvent, and the concentrate is diluted with water to the desired concentration.
This compound solution is pipetted into tubes. 8-10 engorged, adult, female cattle ticks (Rhipicephalus microplus) are placed in perforated tubes. These tubes are immersed in the aqueous compound solution until the ticks are completely moistened. After the liquid has drained off, the ticks are transferred to a filter paper in a plastic tray and stored in a climate chamber.
After 7 days egg deposition of fertile eggs is monitored. Eggs where fertility is not visible are stored in a climate chamber till hatching after about 42 days. An efficacy of 100% means all eggs are infertile; 0% means all eggs are fertile.

A further experiment relates to Ctenocephalides felis. The experiment can be described thus: Ctenocephalides felis oral test (CTECFE Oral). Particulars: 48 h, read-out: activity (mortality). In short, it runs like this: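 Percent mortality was recorded 2 days after roughly 20 adult Ctenocephalides felis fed on treated cattle blood. The blood was warmed to 37 °C beneath a parafilm membrane, with the fleas kept at room temperature. Compound was dissolved in DMSO and diluted into the blood to test concentration.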

The test system of experiment [1] is Myzus persicae. The experiment can be described thus: Myzus persicae oral test. Particulars: 120 h, read-out: activity (mortality). Summed up: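 Percent mortality was recorded at day 5, where 0% means no aphids killed. Compound prepared from an acetone concentrate diluted in water and combined with IPL41 medium containing sugar was offered to mixed-stage green peach aphids, which sucked it through a parafilm seal.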

Experiment [2] has as its system Aedes aegypti strain MONHEIM. The experiment can be described thus: Aedes aegypti test (AEDSAE surface treatment & contact assay). Particulars: exposure 30 minutes, 24 hours after contact, read-out: efficacy (mortality); for mortality at 4 mg/m2: surface concentration 4 mg/m^2, glazed tile; for mortality at 20 mg/m2: surface concentration 20 mg/m^2, glazed tile. Summed up: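 Compound dissolved in acetone (2 mg/ml) with 2000 ppm rapeseed oil methyl ester, pipetted onto glazed tile and dried. Adult mosquitoes exposed on the surface for 30 min; percent mortality scored 24 h after contact.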

In experiment [3] the test system is Musca domestica strain WHO—N. The experiment can be described thus: Musca domestica test (MUSCDO surface treatment & contact assay). Particulars: exposure 30 minutes, 24 hours after contact, read-out: efficacy (mortality); for mortality at 20 mg/m2: surface concentration 20 mg/m^2, glazed tile; for mortality at 4 mg/m2: surface concentration 4 mg/m^2, glazed tile. In short, it runs like this: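 Compound dissolved in acetone (2 mg/ml) with 2000 ppm rapeseed oil methyl ester and pipetted onto glazed tile; after acetone evaporation, adult flies exposed to dried surface for 30 minutes. Mortality (%) scored 24 hours after contact.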

Experiment [4] deals with Myzus persicae. The experiment can be described thus: Myzus persicae spray test. Particulars: in Brassica rapa, foliar, 120 h; for mortality at 500 g/ha: read-out: activity (mortality), application rate 500 g/ha, spray, Chinese cabbage leaf disks, after 5 days; for mortality at 100 g/ha: read-out: activity (mortality), application rate 100 g/ha, spray, Chinese cabbage leaf disks, after 5 days. Summed up: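 Aphid mortality in % was assessed 5 days after spraying; leaf disks of Brassica pekinensis carrying mixed-instar green peach aphids were treated. Spray preparation: active compound in acetone plus dimethylformamide, diluted with emulsifier-containing water (1000 ppm).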

Experiment [5] has as its system Culex quinquefasciatus strain P00. As to the kind of experiment: Culex quinquefasciatus test (CULXFA surface treatment & contact assay). Particulars: exposure 30 minutes, 24 hours after contact, read-out: efficacy (mortality); for mortality at 20 mg/m2: surface concentration 20 mg/m^2, glazed tile; for mortality at 4 mg/m2: surface concentration 4 mg/m^2, glazed tile. In short, it runs like this:
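Test compound in acetone (2 mg/ml) with 2000 ppm RME pipetted onto glazed tile; after acetone evaporation, adult strain P00 mosquitoes exposed to dried surface for 30 min. Mortality (%) scored 24 h after contact; 100% = all dead, 0% = none dead.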

Experiment [6] deals with Anopheles funestus strain FUMOZ-R. As to the kind of experiment: Anopheles funestus test (ANPHFU surface treatment & contact assay). Particulars: exposure 30 minutes, 24 hours after contact, read-out: efficacy (mortality); for mortality at 4 mg/m2: surface concentration 4 mg/m^2, glazed tile; for mortality at 20 mg/m2: surface concentration 20 mg/m^2, glazed tile. Summed up:
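Adult FUMOZ-R mosquitoes were exposed 30 min to glazed tiles treated with compound in acetone plus 2000 ppm rapeseed oil methyl ester, after solvent evaporation. Percent mortality was scored 24 h after contact.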

Consider `CCc1nc([C@H](C)NC(=O)c2cc(C(F)(F)F)cc(C(F)(F)F)c2)n(-c2ccc(C#N)cn2)n1` [I-1], for which the pest or weed control at 100 ppm with Rhipicephalus microplus was 100%. Besides, the mortality at 100 ppm in the experiment on Ctenocephalides felis is 90%. For the same molecule, in the experiment with Myzus persicae [1], the mortality at 4 ppm was 100%. Moreover, in experiment [2], the mortality at 4 mg/m2 was 80 to 100% and the mortality at 20 mg/m2 was in the range of 80 to 100%. Besides, the mortality at 20 mg/m2 in experiment [3] lay within 80 to 100%.
Consider `CCc1nc([C@H](C)NC(=O)c2cc(Cl)cc(Cl)c2)n(-c2ccc(C#N)cn2)n1` [I-2], for which the pest or weed control at 100 ppm in the experiment with Rhipicephalus microplus is 100%. The mortality at 100 ppm in the experiment with Ctenocephalides felis turned out to be 90%. The mortality at 4 mg/m2 in experiment [3] lay in the range of 80 to 100%.
As for `C[C@H](NC(=O)c1cc(Cl)nc(C(F)(F)F)c1)c1ncnn1-c1ccc(C#N)cn1` [II-5], in the experiment with Rhipicephalus microplus, the pest or weed control at 100 ppm was determined as 100%. The mortality at 100 ppm with Ctenocephalides felis was 90%. Further, the mortality at 4 ppm in the experiment on Myzus persicae [1] worked out at 100%. Further, the mortality at 500 g/ha in the experiment with Myzus persicae [4] turned out to be 90%. The mortality at 4 mg/m2 in experiment [2], in experiment [6] and in experiment [3] was 80 to 100% in each case. For the same molecule, the mortality at 20 mg/m2 in experiment [2], in experiment [5], in experiment [6] and in experiment [3] was 80 to 100% each time.
Turning to `C[C@H](NC(=O)c1cc(C(F)(F)F)cc(C(F)(F)F)c1)c1ncnn1-c1ccc(C(=O)N(C)C2CC2)cn1` [II-38, 6-(5-{(1S)-1-[3,5-bis(trifluoromethyl)benzamido]ethyl}-1H-1,2,4-triazol-1-yl)-N-cyclopropyl-N-methylnicotinamide], in the experiment with Rhipicephalus microplus, the pest or weed control at 100 ppm stood at 80%. Also, the mortality at 4 ppm with Myzus persicae [1] was 100%. In the experiment on Myzus persicae [4], the mortality at 100 g/ha turned out to be 100% and the mortality at 500 g/ha worked out at 100%. Besides, in experiment [2], the mortality at 4 mg/m2 fell in the range of 80 to 100% and the mortality at 20 mg/m2 was 80 to 100%. Besides, in experiment [5], the mortality at 20 mg/m2 is 80 to 100%. Moreover, the mortality at 20 mg/m2 in experiment [6] lay in the range of 80 to 100%.
Take `C[C@H](NC(=O)c1cc(Cl)cc(C(F)(F)F)c1)c1ncnn1-c1cc(-n2cncn2)ccn1` [II-43]: the pest or weed control at 100 ppm in the experiment on Rhipicephalus microplus was determined as 100%. The mortality at 4 mg/m2 in experiment [2] and in experiment [5] was 80 to 100% each time. Besides, the mortality at 20 mg/m2 in experiment [2], in experiment [6] and in experiment [3] was 80 to 100% throughout.
Take `Cc1nc([C@H](C)NC(=O)c2cc(Br)cc(OC(F)(F)F)c2)n(-c2ccc(C#N)cn2)n1` [II-47]: the pest or weed control at 100 ppm with Rhipicephalus microplus came to 80%. Besides, the mortality at 100 ppm in the experiment on Ctenocephalides felis was 100%. Further, in the experiment on Myzus persicae [1], the mortality at 0.8 ppm was 100% and the mortality at 4 ppm amounted to 100%. Moreover, the mortality at 100 g/ha in the experiment with Myzus persicae [4] was found to be 100%. In experiment [2], the mortality at 4 mg/m2 lay within 80 to 100% and the mortality at 20 mg/m2 lay within 80 to 100%. Further, the mortality at 20 mg/m2 in experiment [6] is 80 to 100%. Also, in experiment [3], the mortality at 4 mg/m2 lay within 80 to 100% and the mortality at 20 mg/m2 was in the range of 80 to 100%.
In the case of `Cc1nc([C@H](C)NC(=O)c2cc(Cl)cc(Br)c2)n(-c2ccc(C#N)cn2)n1` [II-50], the pest or weed control at 100 ppm in the experiment on Rhipicephalus microplus amounted to 100%. In the experiment with Ctenocephalides felis, the mortality at 100 ppm was 100%. For the same molecule, the mortality at 0.8 ppm in the experiment on Myzus persicae [1] amounted to 100%. For the same molecule, the mortality at 4 ppm in the experiment on Myzus persicae [1] stood at 100%. The mortality at 100 g/ha with Myzus persicae [4] came out at 100%. Also, the mortality at 4 mg/m2 in experiment [2], in experiment [5], in experiment [6] and in experiment [3] was 80 to 100% throughout. For the same molecule, the mortality at 20 mg/m2 in experiment [2] and in experiment [3] was 80 to 100% each time.
With `Cc1nc([C@H](C)NC(=O)c2cc(C#N)cc(C(F)(F)F)c2)n(-c2ccc(C#N)cn2)n1` [II-53], in the experiment with Rhipicephalus microplus, the pest or weed control at 100 ppm stood at 100%. Also, the mortality at 100 ppm with Ctenocephalides felis was found to be 100%. Also, in the experiment on Myzus persicae [1], the mortality at 0.8 ppm was 100% and the mortality at 4 ppm was found to be 100%. Further, the mortality at 100 g/ha in the experiment with Myzus persicae [4] came to 100%. Further, in experiment [2], the mortality at 4 mg/m2 lay within 80 to 100% and the mortality at 20 mg/m2 fell in the range of 80 to 100%. Further, in experiment [3], the mortality at 4 mg/m2 lay in the range of 80 to 100% and the mortality at 20 mg/m2 fell in the range of 80 to 100%.
Take `Cc1nc([C@H](C)NC(=O)c2cc(Br)cc(C#N)c2)n(-c2ccc(C#N)cn2)n1` [II-54]: the pest or weed control at 100 ppm in the experiment on Rhipicephalus microplus is 80%. Moreover, the mortality at 100 ppm with Ctenocephalides felis was found to be 90%. In addition, in the experiment on Myzus persicae [1], the mortality at 0.8 ppm came to 100% and the mortality at 4 ppm amounted to 100%. Further, the mortality at 100 g/ha with Myzus persicae [4] was determined as 90%. Moreover, in experiment [2], the mortality at 4 mg/m2 lay in the range of 80 to 100% and the mortality at 20 mg/m2 fell in the range of 80 to 100%. In addition, in experiment [3], the mortality at 4 mg/m2 is 80 to 100% and the mortality at 20 mg/m2 is 80 to 100%.
With `Cc1nc([C@H](C)NC(=O)c2cncc(C(F)(F)F)c2)n(-c2ccc(C#N)cn2)n1` [II-63], in the experiment on Rhipicephalus microplus, the pest or weed control at 100 ppm amounted to 100%. Also, the mortality at 100 ppm in the experiment with Ctenocephalides felis amounted to 100%. The mortality at 4 ppm in the experiment on Myzus persicae [1] is 100%. Moreover, the mortality at 100 g/ha in the experiment on Myzus persicae [4] was 100%. Further, in experiment [2], the mortality at 4 mg/m2 was 80 to 100%. For the same molecule, the mortality at 20 mg/m2 in experiment [2], in experiment [5] and in experiment [3] was 80 to 100% throughout.
For the molecule `C[C@H](NC(=O)c1cc(C(F)(F)F)cc(C(F)(F)F)c1)c1ncnn1-c1ccc(C(=O)N(C)CC2CC2)cn1` [II-73], the pest or weed control at 100 ppm with Rhipicephalus microplus worked out at 100%. Also, the mortality at 4 ppm in the experiment with Myzus persicae [1] is 100%. In the experiment with Myzus persicae [4], the mortality at 100 g/ha came out at 100% and the mortality at 500 g/ha was 100%.
For `Cc1nc([C@H](C)NC(=O)c2cc(C(F)(F)F)cc(C(F)(F)F)c2)n(-c2ccc(C(=O)N(C)C3CC3)cn2)n1` [II-96], the pest or weed control at 100 ppm with Rhipicephalus microplus was determined as 100%. Also, the mortality at 100 ppm in the experiment on Ctenocephalides felis worked out at 100%. In the experiment on Myzus persicae [1], the mortality at 4 ppm came out at 100%. For the same molecule, in the experiment with Myzus persicae [4], the mortality at 100 g/ha was found to be 90%. In addition, in experiment [2], the mortality at 4 mg/m2 is 80 to 100% and the mortality at 20 mg/m2 fell in the range of 80 to 100%. Further, in experiment [3], the mortality at 4 mg/m2 fell in the range of 80 to 100% and the mortality at 20 mg/m2 was in the range of 80 to 100%.
`CCN(C)C(=O)c1ccc(-n2nc(C)nc2[C@H](C)NC(=O)c2cc(C(F)(F)F)cc(C(F)(F)F)c2)nc1` [II-97]: the pest or weed control at 100 ppm in the experiment on Rhipicephalus microplus was determined as 100%. In the experiment on Ctenocephalides felis, the mortality at 100 ppm was 100%. In the experiment on Myzus persicae [1], the mortality at 4 ppm was 100%. The mortality at 100 g/ha in the experiment with Myzus persicae [4] was found to be 100%. For the same molecule, the mortality at 20 mg/m2 in experiment [2] fell in the range of 80 to 100%. Besides, in experiment [3], the mortality at 4 mg/m2 lay in the range of 80 to 100% and the mortality at 20 mg/m2 was in the range of 80 to 100%.

For the origin of these results see US20220274947A1, “NOVEL HETEROARYL-TRIAZOLE COMPOUNDS AS PESTICIDES” (Bayer Aktiengesellschaft, priority 2019, published 2022).
